Experimental data from ChEMBL document CHEMBL3132843, “Discovery of novel inhibitors for human farnesyltransferase (hFTase) via structure-based virtual screening” (Medchemcomm, 2013).

Biological target: Protein farnesyltransferase (Homo sapiens, UniProt P49354+P49356)
Experiment: Inhibition of human FTase using farnesyl pyrophosphate as substrate by fluorescent assay
Format: protein-complex assay
Conditions: not given

Which IC50 does the source give for `Cc1cccc(Oc2ccc(NC(=O)c3ccccc3C(=O)O)cc2)c1C` here?
Its IC50 is 6.9 µM.

For `Cc1ccc(Oc2ncccc2NC(=O)CC(CC(=O)O)c2ccccc2)c2c1CCC2` (stereo unspecified), which IC50 is on record?
Its IC50 is 13.3 µM.

For `CCOC(=O)c1c(C)oc2c1cc(NS(=O)(=O)c1ccc(C(=O)O)cc1)c1ccccc12`, which IC50 is on record?
The IC50 was 3.89 µM.

Which IC50 does the source give for `Cc1ccc(Oc2ncccc2NC(=O)CCCC(=O)O)c2c1CCC2` here?
The IC50 was 5.4 µM.

How did the IC50 turn out when `COc1cc(/C=C2\S/C(=N\c3ccccc3)N(Cc3ccco3)C2=O)ccc1OC(C)C(=O)O` (stereo unspecified) was run?
Its IC50 is 5.14 µM.

Which IC50 does the source give for `Oc1cccc2ccc(/C=C/c3ccccc3OCc3ccccc3Cl)nc12` here?
Its IC50 is 0.0119 µM.

For `Cc1cncc(NC(c2cccc(OCc3ccccc3)c2)c2ccc3cccnc3c2O)c1` (stereo unspecified), which IC50 is on record?
Its IC50 is 0.0489 µM.

`CCN(CC)c1ccc(/C=N/Nc2nc(NCc3ccco3)nc(Nc3ccc(OC)cc3)n2)c(OCc2ccc(Cl)cc2Cl)c1` was tested. Which IC50 did it give?
The IC50 was 0.0515 µM.

For `O=C(N/N=C\c1cn(Cc2ccc([N+](=O)[O-])cc2)c2ccccc12)c1cc2ccccc2o1`, which IC50 is on record?
The IC50 was 0.14 µM.

How did the IC50 turn out when `COc1ccc(-c2cc(C(=O)OCC(=O)c3cccc4ccccc34)c3ccccc3n2)cc1` was run?
Its IC50 is 0.37 µM.

Which IC50 does the source give for `Cc1ccc(OC(=O)c2ccc3c(c2)C(=O)N(c2cccc4ccccc24)C3=O)cc1` here?
Its IC50 is 0.44 µM.

Which IC50 does the source give for `O=C(c1ccc(Cl)cc1)N1N=C(c2c(-c3ccccc3)c3cc(Br)ccc3[nH]c2=O)CC1c1ccco1` (stereo unspecified) here?
The IC50 was 0.52 µM.

Which IC50 does the source give for `COc1cccc(C2C(C(=O)/C=C/c3ccccc3)=C(O)C(=O)N2c2ccccc2)c1` (stereo unspecified) here?
The IC50 was 1.46 µM.

`COc1cc(CNc2ccc(O)cc2)cc(Cl)c1OCc1ccc(Cl)cc1` was tested. Which IC50 did it give?
The IC50 was 2.57 µM.

For `CC1=NN(c2ccccc2)C(=O)/C1=C/c1ccccc1OCc1ccc(C(=O)O)cc1`, which IC50 is on record?
Its IC50 is 2.58 µM.

Which IC50 does the source give for `O=C(O)c1ccc(/N=[N+](/[O-])c2ccccc2Sc2ccccc2C(=O)O)cc1Sc1ccccc1O` here?
The IC50 was 3.22 µM.

With `Cc1c(Cc2ccccc2)sc(CC(=O)CCC(=O)O)c1C(N)=O` as the molecule, how does the IC50 read?
Its IC50 is 3.52 µM.

`O=C(O)C1CCCCC1C(=O)Nc1ccc(Oc2ccccc2)cc1` (stereo unspecified) was tested. Which IC50 did it give?
Its IC50 is 3.56 µM.

Which IC50 does the source give for `Oc1ccc(NCc2cc(Cl)ccc2OCc2ccccc2F)cc1` here?
The IC50 was 4.21 µM.

Which IC50 does the source give for `N#Cc1c(SCc2ccc(C(=O)O)cc2)nc2c(c1-c1ccccc1)CCC2` here?
Its IC50 is 5.6 µM.

For `COCCN1C(=O)C(O)=C(C(=O)c2ccc(C)cc2)C1c1cccc(Oc2ccccc2)c1` (stereo unspecified), which IC50 is on record?
Its IC50 is 8.8 µM.

Which IC50 does the source give for `O=C(c1ccccc1)c1ccc(/N=C/c2cc([N+](=O)[O-])ccc2O)cc1` here?
Its IC50 is 11 µM.

Which IC50 does the source give for `Cn1cncc1[C@@](N)(c1ccc(Cl)cc1)c1ccc2c(c1)c(-c1cccc(Cl)c1)cc(=O)n2C` [TIPIFARNIB] here?
Its IC50 is 0.003 µM.

System: MCF7
Experiment: Cytotoxicity against human MCF7 cells after 48 hrs by MTT assay
Format: functional, cell-based
Conditions: MCF7, 48 h

For `Cc1cccc(Oc2ccc(NC(=O)c3ccccc3C(=O)O)cc2)c1C`, which IC50 is on record?
The IC50 was > 100 µM.

Which IC50 does the source give for `Cc1ccc(Oc2ncccc2NC(=O)CC(CC(=O)O)c2ccccc2)c2c1CCC2` (stereo unspecified) here?
Its IC50 is > 100 µM.

How did the IC50 turn out when `CCOC(=O)c1c(C)oc2c1cc(NS(=O)(=O)c1ccc(C(=O)O)cc1)c1ccccc12` was run?
The IC50 was 46.7 µM.

With `Cc1ccc(Oc2ncccc2NC(=O)CCCC(=O)O)c2c1CCC2` as the molecule, how does the IC50 read?
Its IC50 is > 100 µM.

`COc1cc(/C=C2\S/C(=N\c3ccccc3)N(Cc3ccco3)C2=O)ccc1OC(C)C(=O)O` (stereo unspecified) was tested. Which IC50 did it give?
Its IC50 is > 100 µM.

Which IC50 does the source give for `Oc1cccc2ccc(/C=C/c3ccccc3OCc3ccccc3Cl)nc12` here?
The IC50 was > 100 µM.

For `Cc1cncc(NC(c2cccc(OCc3ccccc3)c2)c2ccc3cccnc3c2O)c1` (stereo unspecified), which IC50 is on record?
Its IC50 is 14.3 µM.

Which IC50 does the source give for `CCN(CC)c1ccc(/C=N/Nc2nc(NCc3ccco3)nc(Nc3ccc(OC)cc3)n2)c(OCc2ccc(Cl)cc2Cl)c1` here?
Its IC50 is > 100 µM.

Which IC50 does the source give for `O=C(N/N=C\c1cn(Cc2ccc([N+](=O)[O-])cc2)c2ccccc12)c1cc2ccccc2o1` here?
Its IC50 is > 100 µM.

With `COc1ccc(-c2cc(C(=O)OCC(=O)c3cccc4ccccc34)c3ccccc3n2)cc1` as the molecule, how does the IC50 read?
Its IC50 is > 100 µM.

For `Cc1ccc(OC(=O)c2ccc3c(c2)C(=O)N(c2cccc4ccccc24)C3=O)cc1`, which IC50 is on record?
Its IC50 is > 100 µM.

Which IC50 does the source give for `O=C(c1ccc(Cl)cc1)N1N=C(c2c(-c3ccccc3)c3cc(Br)ccc3[nH]c2=O)CC1c1ccco1` (stereo unspecified) here?
Its IC50 is 32.2 µM.

For `COc1cccc(C2C(C(=O)/C=C/c3ccccc3)=C(O)C(=O)N2c2ccccc2)c1` (stereo unspecified), which IC50 is on record?
The IC50 was > 100 µM.

How did the IC50 turn out when `COc1cc(CNc2ccc(O)cc2)cc(Cl)c1OCc1ccc(Cl)cc1` was run?
The IC50 was 20.5 µM.

With `CC1=NN(c2ccccc2)C(=O)/C1=C/c1ccccc1OCc1ccc(C(=O)O)cc1` as the molecule, how does the IC50 read?
The IC50 was 38.9 µM.

`O=C(O)c1ccc(/N=[N+](/[O-])c2ccccc2Sc2ccccc2C(=O)O)cc1Sc1ccccc1O` was tested. Which IC50 did it give?
Its IC50 is > 100 µM.

Which IC50 does the source give for `Cc1c(Cc2ccccc2)sc(CC(=O)CCC(=O)O)c1C(N)=O` here?
Its IC50 is > 100 µM.

`O=C(O)C1CCCCC1C(=O)Nc1ccc(Oc2ccccc2)cc1` (stereo unspecified) was tested. Which IC50 did it give?
Its IC50 is > 100 µM.

Which IC50 does the source give for `Oc1ccc(NCc2cc(Cl)ccc2OCc2ccccc2F)cc1` here?
The IC50 was 12.2 µM.

`N#Cc1c(SCc2ccc(C(=O)O)cc2)nc2c(c1-c1ccccc1)CCC2` was tested. Which IC50 did it give?
Its IC50 is > 100 µM.

With `COCCN1C(=O)C(O)=C(C(=O)c2ccc(C)cc2)C1c1cccc(Oc2ccccc2)c1` (stereo unspecified) as the molecule, how does the IC50 read?
Its IC50 is > 100 µM.

How did the IC50 turn out when `O=C(c1ccccc1)c1ccc(/N=C/c2cc([N+](=O)[O-])ccc2O)cc1` was run?
The IC50 was > 100 µM.

For `Cn1cncc1[C@@](N)(c1ccc(Cl)cc1)c1ccc2c(c1)c(-c1cccc(Cl)c1)cc(=O)n2C` [TIPIFARNIB], which IC50 is on record?
The IC50 was 3.08 µM.
